In ChEMBL document CHEMBL3243990, “Hydantoins as antitumor agents” (1977) one finds Activity and T/C data, which are given here for 26 compounds.

Active and inactive are the calls of the source. The rule behind the calls is not given here.

For one experiment, the system named is L1210. In words: Antitumor activity against mouse L1210 cells allografted in mouse relative to control. Format: functional, cell-based.
A further experiment concerns P388. In words: Antitumor activity against mouse P388 cells allografted in mouse relative to control. Format: functional.

Consider `CC1(c2cccs2)C(=O)N(Cl)C(=O)N1Cl` (centres undefined), for which the outcome with L1210 was inactive.
As for `O=C1NC(=O)C2(CSSC2)N1`, in the experiment on L1210, the result was inactive.
On to `O=C1NC(=O)C(c2ccc(Cl)cc2)(c2ccc(Cl)cc2)N1`, for which, in the experiment on L1210, the outcome was inactive.
The same measure, in the same setting: the result for `CC1(c2cccs2)NC(=O)N(C(=O)CCl)C1=O` (centres undefined) reads “inactive”; that for `CC(=O)N1C(=O)NC(=O)C1(C)c1cccs1` (centres undefined), “inactive”; that for `O=C1NC(c2cccs2)(c2cccs2)C(=O)N1Cl`, “inactive”.
Turning to `CC1(c2ccc(Cl)s2)NC(=O)NC1=O` (centres undefined), in the experiment with L1210, the result was inactive.
As for `O=C1N(Cl)C(=O)C(c2ccc(Cl)cc2)(c2ccc(Cl)cc2)N1Cl`, in the experiment on L1210, the outcome was inactive. In the experiment on P388, this compound came in with a T/C of 190%.
Regarding `CC1(c2ccco2)NC(=O)NC1=O` (centres undefined), in the experiment on L1210, the result was inactive.
The same measure, in the same setting: the result for `CC1(c2ccco2)NC(=O)N(Cl)C1=O` (centres undefined) reads “inactive”; that for `CC(=O)N1C(=O)N(Cl)C(=O)C1(C)c1cccs1` (centres undefined), “inactive”.
Regarding `CC(=O)N1C(=O)NC(=O)C1(c1ccc(Cl)cc1)c1ccc(Cl)cc1`, the outcome in the experiment on L1210 and in the experiment on P388 was inactive.
Consider `CC(=O)N1C(=O)NC(=O)C1(C)c1ccco1` (centres undefined), for which, in the experiment on L1210, the result was inactive.
In the case of `CC(=O)N1C(=O)NC(c2ccc(Cl)cc2)(c2ccc(Cl)cc2)C1=O`, the result in the experiment on L1210 and in the experiment with P388 was inactive.
`O=C1N(Cl)C(=O)C(c2ccc(C(F)(F)F)cc2)(c2ccc(C(F)(F)F)cc2)N1Cl`: the result in the experiment on L1210 and in the experiment with P388 was inactive.
As to `O=C1NC(=O)C(c2ccc(C(F)(F)F)cc2)(c2ccc(C(F)(F)F)cc2)N1`, the result with L1210 and in the experiment on P388 was inactive.
`CC1(c2cccs2)NC(=O)N(Cl)C1=O` (centres undefined): the outcome in the experiment on L1210 was inactive.
On to `O=C(CCl)N1C(=O)NC(c2ccc(Cl)cc2)(c2ccc(Cl)cc2)C1=O`, for which the outcome with L1210 and in the experiment on P388 was inactive.
In the case of `CC1(c2cccs2)NC(=O)NC1=O` (centres undefined), in the experiment with L1210, the outcome was inactive.
For `CC1(c2ccco2)NC(=O)N(C(=O)CCl)C1=O` (centres undefined), the outcome in the experiment with L1210 was inactive.
On to `CC(=O)N1C(=O)N(Cl)C(=O)C1(c1ccc(Cl)cc1)c1ccc(Cl)cc1`, for which the result in the experiment on L1210 and in the experiment on P388 was inactive.
On to `CC1(c2ccc(Cl)s2)C(=O)N(Cl)C(=O)N1Cl` (centres undefined), for which the outcome with L1210 was inactive.
On the same count and under the same terms, the result for `CC(=O)N1C(=O)NC(=O)C1(C)c1ccc(Cl)s1` (centres undefined) reads “inactive”; that for `CN1C(=O)NC(C)(c2cccs2)C1=O` (centres undefined), “inactive”; that for `O=C1NC(=O)C(c2cccs2)(c2cccs2)N1`, “inactive”.
Take `CN1C(=O)NC(c2ccc(Cl)cc2)(c2ccc(Cl)cc2)C1=O`: the outcome in the experiment with L1210 and with P388 was inactive.
